Values quoted from earlier work in patent US11608532B2, “Precision medicine for treating and preventing suicidality” (Indiana University Research and Technology Corporation, priority 2017, dated 2023).
Where two headings read alike, the source gives them in different places.

Key:
[1] = tested on: individual top biomarkers for suicidality; conditions: for HTR2A modulated by drug in opposite direction to suicide: DE/2
[2] = tested on: top male bipolar biomarkers for suicidality
[3] = tested on: BioM50 panel biomarkers
[4] = A. Top Universal Biomarkers, direction of change in suicidality (I)
[5] = C. Top Biomarkers in Females, direction of change in suicidality I
[6] = D. Top Biomarkers in Bipolar Disorder, direction of change in suicidality (I)
[7] = F. Top Biomarkers in Males with Bipolar Disorder, direction of change in suicidality (I)
[8] = biomarker HTR2A (5-hydroxytryptamine (serotonin) receptor 2A, G protein-coupled)
[9] = HTR2A, 244130_at, (I) in suicidality, male bipolars

Molecule: CCCC(CCC)C(=O)O [Valproate]
- SLC4A4 modulated by drug in opposite direction to suicide ([1]; A. Top Universal Biomarkers, direction of change in suicidality (I), AP/1): Valproate
- HTR2A modulated by drug in opposite direction to suicide [1, 4]: Valproate
- SLC4A4 modulated by drug in opposite direction to suicide ([1]; B. Top Biomarkers in Males, direction of change in suicidality I, AP/2): Valproate
- TPR modulated by drug in opposite direction to suicide ([1]; C. Top Biomarkers in Females, direction of change in suicidality D, AP/4): Valproate
- HTR2A modulated by drug in opposite direction to suicide [1, 5]: Valproate
- HTR2A modulated by drug in opposite direction to suicide [1, 6]: Valproate
- TSPYL1 modulated by drug in opposite direction to suicide ([1]; E. Top Biomarkers in Depression, direction of change in suicidality (D), AP/1): Valproate
- GLIPR1 modulated by drug in opposite direction to suicide ([1]; E. Top Biomarkers in Depression, direction of change in suicidality (D), DE/1): Valproate
- HTR2A modulated by drug in opposite direction to suicide [1, 7]: Valproate
- TSPYL1 modulated by drug in opposite direction to suicide ([1]; G. Top Biomarkers in Males with Depression, direction of change in suicidality D, AP/1): Valproate
- Step 6 Drugs that Modulate the Biomarker in Opposite Direction to Suicide ([1]; biomarker CTTN (cortactin)): Valproate
- Step 6 Drugs that Modulate the Biomarker in Opposite Direction to Suicide [1, 8]: Valproate
- Step 6 Drugs that Modulate the Biomarker in Opposite Direction to Suicide ([1]; biomarker PKP4 (plakophilin 4)): Valproate
- Step 6 Drugs that Modulate the Biomarker in Opposite Direction to Suicide ([1]; biomarker PRKAR2B): Valproate
- Drugs that modulate the biomarker RBM3 ([1]; biomarker RBM3 (RNA binding motif (RNP1, RRM) protein 3), Table 20 CFE drug-evidence): Valproate
- Step 6 Drugs that Modulate the Biomarker in Opposite Direction to Suicide ([1]; biomarker SLC4A4): Valproate
- Drugs that Modulate the Biomarker in Opposite Direction to Suicide [2, 9]: Valproate
- known drugs or classes of drugs that have an opposite effect to suicidality on the biomarker's direction of change (pharmacogenomics) ([3]; biomarker BCL2 (B-cell CLL/lymphoma 2)): Valproate
- Matching to Treatments (Pharmacogenomics) Drugs that Modulate the Biomarker in opposite Direction to Suicide ([3]; biomarker NR3C1, probeset 201866_s_at, (D) decreased in high suicidal ideation): Valproate
- Matching to Treatments (Pharmacogenomics) Drugs that Modulate the Biomarker in opposite Direction to Suicide ([3]; biomarker PRKAR2B, probeset 203680_at, (D) decreased in high suicidal ideation): Valproate

Molecule: Cc1nc2n(c(=O)c1CCN1CCC(c3noc4cc(F)ccc34)CC1)CCCC2O (stereo not drawn) [Paliperidone]
- HTR2A modulated by drug in opposite direction to suicide [1, 4]: Paliperidone,
- HTR2A modulated by drug in opposite direction to suicide [1, 5]: Paliperidone,
- HTR2A modulated by drug in opposite direction to suicide [1, 6]: Paliperidone,
- HTR2A modulated by drug in opposite direction to suicide [1, 7]: Paliperidone,
- Step 6 Drugs that Modulate the Biomarker in Opposite Direction to Suicide [1, 8]: Paliperidone,
- Drugs that Modulate the Biomarker in Opposite Direction to Suicide [2, 9]: Paliperidone

Molecule: omega-3 fatty acids [reference compound]
- Drugs that Modulate the Biomarker in Opposite Direction to Suicide [2]: Omega-3
- Drugs that Modulate the Biomarker in Opposite Direction to Suicide (direction of change by drug) [2]: (I)
- Matching to Treatments (Pharmacogenomics) Drugs that Modulate the Biomarker in opposite Direction to Suicide [3]: Omega-3

Molecule: Cc1nc2n(c(=O)c1CCN1CCC(c3noc4cc(F)ccc34)CC1)CCCC2 [Risperidone]
- IFNG modulated by drug in opposite direction to suicide ([1]; A. Top Universal Biomarkers, direction of change in suicidality (D), AP/1): Risperidone,
- Step 6 Drugs that Modulate the Biomarker in Opposite Direction to Suicide [1, 8]: Risperidone
- Drugs that Modulate the Biomarker in Opposite Direction to Suicide [2, 9]: Risperidone

Molecule: CN1C(=O)CN=C(c2ccccc2)c2cc(Cl)ccc21 [Diazepam]
- Step 6 Drugs that Modulate the Biomarker in Opposite Direction to Suicide ([1]; biomarker AKAP13 (A kinase (PRKA) anchor protein 13)): Diazepam
- Step 6 Drugs that Modulate the Biomarker in Opposite Direction to Suicide ([1]; biomarker PGK1 (phosphoglycerate kinase 1)): Diazepam
- Step 6 Drugs that Modulate the Biomarker in Opposite Direction to Suicide ([1]; biomarker PSMB4): Diazepam
- Drugs that modulate the biomarker SPTBN1 ([1]; biomarker SPTBN1 (spectrin, beta, non-erythrocytic 1), Table 20 CFE drug-evidence): Diazepam
- Drugs that Modulate the Biomarker in Opposite Direction to Suicide ([2]; SPTBN1, 215918_s_at, (I) in suicidality, male bipolars): Diazepam

Molecule: CN1CCN2c3ncccc3Cc3ccccc3C2C1 (stereo not drawn) [mirtazapine]
- HTR2A modulated by drug in opposite direction to suicide [1, 4]: mirtazapine,
- HTR2A modulated by drug in opposite direction to suicide [1, 5]: mirtazapine,
- HTR2A modulated by drug in opposite direction to suicide [1, 6]: mirtazapine,
- HTR2A modulated by drug in opposite direction to suicide [1, 7]: mirtazapine,
- Drugs that Modulate the Biomarker in Opposite Direction to Suicide [2, 9]: mirtazapine
